Test results taken from patent EP2165698B1, “Cosmetic composition designed to protect damaged skin” (Universkin, priority 2008, dated 2016).
Where a SMILES comes first, the peptide text is derived from it.

Tests used:
[1] = tested on: kératinocytes de lignée NCTC
[2] = tested on: Fibroblastes de lignée MRC5
[3] = tested on: fibroblastes de lignée humaine; assay: Production of extracellular matrix (MEC) proteins by fibroblasts, immunofluorescence / confocal microscopy; settings: tripeptide-1 à 10^-7M vs culture without peptide
From the text: Exemple 1 Etude du tripeptide-1® sur la production de protéines de la MEC par les fibroblastes par immunofluorescence.
• ▪ Matériel : fibroblastes de lignée humaine. • ▪ Protocole : les fibroblastes sont mis en culture en présence ou en absence du tripeptide-1® à 10^-7M. • ▪ Etude microscopique par microscopie confocale.

## CC/C=C\C/C=C\C/C=C\CCCCCCCC(=O)O [acide alpha-linolénique]
[1]
  acide EPA dans les cellules de kératinocytes: apparition de l'acide EPA
  acide alpha-linolénique dans le surnageant: aucune trace
  acide alpha-linolénique dans les cellules de kératinocytes: quantités importantes
  acides EPA et DHA dans le surnageant: Apparition des acides EPA et DHA
[2]
  acide alpha-linolénique dans le surnageant: plus faible quantité que la quantité de départ
  acides EPA et DHA dans le milieu surnageant: Apparition des acides EPA et DHA

## NCCCC[C@H](NC(=O)[C@H](Cc1c[nH]cn1)NC(=O)CN)C(=O)O [tripeptide-1, H-Gly-His-Lys-OH] (H-Gly-His-Lys-OH)
[3]
  AUGMENTATION % - Collagène de type I: + 305%
  AUGMENTATION % - Collagène de type II: + 105%
  AUGMENTATION % - Elastine: + 15%
  AUGMENTATION % - Fibronectine: + 155%
  AUGMENTATION % - Laminine: + 85%
